This note sets out measurements from ChEMBL document CHEMBL5550171, “Poly (ADP-ribose) polymerase (PARP) inhibitors as anticancer agents: An outlook on clinical progress, synthetic strategies, biological activity, and structure-activity relationship” (Eur J Med Chem, 2024).

Series [1] has as its system MDA-MB-231. Kind of series: Cytotoxicity against human MDA-MB-231 cells assessed as reduction in cell viability measured for 48 hrs by MTT assay. As to conditions: MDA-MB-231, 48 h. In kind it is functional, cell-based.
In series [2] the target is Protein mono-ADP-ribosyltransferase PARP3 (Homo sapiens, UniProt Q9Y6F1). The series is described as follows: Inhibition of PARP3 (unknown origin).
Protein mono-ADP-ribosyltransferase PARP3, sequence (Q9Y6F1 whole entry): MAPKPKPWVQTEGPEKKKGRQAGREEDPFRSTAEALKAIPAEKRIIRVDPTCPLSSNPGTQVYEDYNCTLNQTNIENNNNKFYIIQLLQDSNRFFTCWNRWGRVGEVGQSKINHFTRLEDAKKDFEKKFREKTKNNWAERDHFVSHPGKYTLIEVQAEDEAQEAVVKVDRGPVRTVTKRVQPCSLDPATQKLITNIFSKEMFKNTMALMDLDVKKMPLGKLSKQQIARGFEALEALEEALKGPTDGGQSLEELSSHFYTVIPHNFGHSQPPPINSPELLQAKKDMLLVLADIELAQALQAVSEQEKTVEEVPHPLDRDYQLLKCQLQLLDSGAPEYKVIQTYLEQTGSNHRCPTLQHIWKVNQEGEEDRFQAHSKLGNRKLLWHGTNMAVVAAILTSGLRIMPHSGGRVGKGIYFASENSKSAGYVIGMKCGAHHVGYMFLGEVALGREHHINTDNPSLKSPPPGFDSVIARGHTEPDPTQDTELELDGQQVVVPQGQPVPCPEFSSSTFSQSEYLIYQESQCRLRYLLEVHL
Series [3] deals with MCF7. Kind of series: Cytotoxicity against human MCF7 cells assessed as reduction in cell viability measured for 48 hrs by MTT assay. In kind it is functional, cell-based. To be noted: MCF7, 48 h.
The target in series [4] is T1, Protein cereblon/Poly [ADP-ribose] polymerase 1 (Homo sapiens, UniProt P09874+Q96SW2). Kind of series: PROTAC activity at CRBN/PARP1 in human MDA-MB-231 cells assessed as […]. In kind it is cell-based.
Target sequence in this assay (P09874 whole entry): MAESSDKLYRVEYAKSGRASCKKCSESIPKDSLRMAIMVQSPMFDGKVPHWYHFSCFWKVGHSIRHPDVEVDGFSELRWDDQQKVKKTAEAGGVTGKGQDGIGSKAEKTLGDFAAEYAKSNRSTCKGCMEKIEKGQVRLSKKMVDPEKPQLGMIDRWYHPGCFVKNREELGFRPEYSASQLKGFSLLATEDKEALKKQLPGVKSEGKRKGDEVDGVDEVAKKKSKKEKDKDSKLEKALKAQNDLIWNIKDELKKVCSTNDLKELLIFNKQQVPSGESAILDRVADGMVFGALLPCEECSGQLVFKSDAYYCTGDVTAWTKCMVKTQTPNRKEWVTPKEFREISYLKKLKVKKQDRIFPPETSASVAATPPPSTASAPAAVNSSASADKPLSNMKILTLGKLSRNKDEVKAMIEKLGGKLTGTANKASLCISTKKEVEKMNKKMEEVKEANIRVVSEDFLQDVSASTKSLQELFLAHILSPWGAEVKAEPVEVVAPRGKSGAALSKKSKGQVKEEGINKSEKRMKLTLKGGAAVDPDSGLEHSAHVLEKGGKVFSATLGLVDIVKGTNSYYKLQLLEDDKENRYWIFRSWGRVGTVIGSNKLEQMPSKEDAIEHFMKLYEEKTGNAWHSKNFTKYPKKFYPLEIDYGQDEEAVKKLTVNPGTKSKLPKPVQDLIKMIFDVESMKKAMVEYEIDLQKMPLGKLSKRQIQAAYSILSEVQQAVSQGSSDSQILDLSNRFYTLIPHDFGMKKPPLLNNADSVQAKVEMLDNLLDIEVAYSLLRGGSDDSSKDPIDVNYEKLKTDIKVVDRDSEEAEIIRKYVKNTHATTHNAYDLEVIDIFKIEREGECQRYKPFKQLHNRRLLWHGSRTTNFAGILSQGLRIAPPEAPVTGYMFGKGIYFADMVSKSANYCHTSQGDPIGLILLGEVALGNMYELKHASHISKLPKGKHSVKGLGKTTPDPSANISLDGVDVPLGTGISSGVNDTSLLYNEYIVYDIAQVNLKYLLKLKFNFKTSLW
Target sequence in this assay (Q96SW2 whole entry): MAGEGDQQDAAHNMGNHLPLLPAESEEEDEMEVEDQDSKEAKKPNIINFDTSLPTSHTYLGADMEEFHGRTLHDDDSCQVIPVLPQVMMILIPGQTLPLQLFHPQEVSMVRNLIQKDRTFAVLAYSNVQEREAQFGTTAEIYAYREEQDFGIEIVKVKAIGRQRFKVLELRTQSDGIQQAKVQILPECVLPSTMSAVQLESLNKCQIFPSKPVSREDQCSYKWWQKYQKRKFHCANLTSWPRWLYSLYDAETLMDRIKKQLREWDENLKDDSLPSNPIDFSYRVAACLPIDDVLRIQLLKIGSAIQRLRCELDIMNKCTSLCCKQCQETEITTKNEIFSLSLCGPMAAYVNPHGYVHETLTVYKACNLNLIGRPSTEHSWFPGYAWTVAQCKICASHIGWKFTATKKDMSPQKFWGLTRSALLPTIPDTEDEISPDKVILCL
Series [5] concerns MDA-MB-231. The series is described as follows: Antitumor activity against human MDA-MB-231 cells xenografted in mouse assessed as tumor growth inhibition at 40 mg/kg, po relative to control. In kind it is functional. As to conditions: read-out: TGI.
Series [6] deals with MDA-MB-231. Kind of series: Antiproliferative activity against human MDA-MB-231 cells assessed as reduction in cell viability at 10 uM after 24 hrs by CCK8 assay relative to control. In kind it is functional.
Series [7] deals with MDA-MB-231. The series is described as follows: Antiproliferative activity against human MDA-MB-231 cells assessed as reduction in cell viability at 1 uM after 24 hrs by CCK8 assay relative to control. In kind it is functional.
The test system of series [8] is MDA-MB-231. Kind of series: Antiproliferative activity against human MDA-MB-231 cells assessed as reduction in cell viability after 24 hrs by CCK8 assay. In kind it is functional, cell-based. As to conditions: MDA-MB-231, 24 h.
Series [9] concerns the target T1, Protein cereblon/Poly [ADP-ribose] polymerase 1. Kind of series: PROTAC activity at CRBN/PARP1 in human MDA-MB-231 cells assessed as induction of PARP1 degradation at 0.1 uM relative to control. In kind it is cell-based.
Target sequence in this assay (P09874 2-1014 limits assumed): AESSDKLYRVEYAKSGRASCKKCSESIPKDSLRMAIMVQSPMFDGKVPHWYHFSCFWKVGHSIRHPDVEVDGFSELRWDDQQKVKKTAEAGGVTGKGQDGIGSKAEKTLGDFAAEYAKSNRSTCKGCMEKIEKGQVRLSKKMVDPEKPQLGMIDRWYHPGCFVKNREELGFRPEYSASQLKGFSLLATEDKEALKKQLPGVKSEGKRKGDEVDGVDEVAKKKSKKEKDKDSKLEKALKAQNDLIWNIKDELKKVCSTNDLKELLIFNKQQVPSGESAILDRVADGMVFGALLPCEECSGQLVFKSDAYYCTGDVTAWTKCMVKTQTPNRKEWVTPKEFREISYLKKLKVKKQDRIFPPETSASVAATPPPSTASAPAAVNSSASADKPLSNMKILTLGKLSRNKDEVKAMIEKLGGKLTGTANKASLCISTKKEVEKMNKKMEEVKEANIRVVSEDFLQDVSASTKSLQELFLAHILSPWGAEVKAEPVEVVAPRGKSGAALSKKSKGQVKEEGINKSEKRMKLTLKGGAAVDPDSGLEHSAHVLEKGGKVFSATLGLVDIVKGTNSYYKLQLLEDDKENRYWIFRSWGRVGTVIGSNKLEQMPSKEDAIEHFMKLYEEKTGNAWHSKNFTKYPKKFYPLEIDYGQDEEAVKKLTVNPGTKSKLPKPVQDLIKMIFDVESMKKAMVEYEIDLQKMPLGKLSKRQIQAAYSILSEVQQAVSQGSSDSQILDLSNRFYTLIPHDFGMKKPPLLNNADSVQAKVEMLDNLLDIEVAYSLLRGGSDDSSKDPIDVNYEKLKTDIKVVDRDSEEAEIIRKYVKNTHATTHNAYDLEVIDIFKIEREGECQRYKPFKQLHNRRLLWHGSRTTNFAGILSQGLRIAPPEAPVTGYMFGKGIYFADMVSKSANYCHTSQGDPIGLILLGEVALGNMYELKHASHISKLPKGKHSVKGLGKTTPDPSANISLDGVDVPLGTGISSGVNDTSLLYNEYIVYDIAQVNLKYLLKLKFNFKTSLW
Target sequence in this assay (Q96SW2 whole entry partner): as the sequence (Q96SW2 whole entry) above
The nature of series [10]: Cytotoxicity against human WI-38 cells assessed as reduction in cell viability incubated for 48 hrs by MTT assay. In kind it is toxicity, cell-based.
Series [11] deals with Poly [ADP-ribose] polymerase 1 (Homo sapiens, UniProt P09874). The series is described as follows: Inhibition of human PARP1.
Poly [ADP-ribose] polymerase 1, sequence (P09874 whole entry): as the sequence (P09874 whole entry) above
The test system of series [12] is MDA-MB-436. The series is described as follows: Antiproliferative activity against human MDA-MB-436 cells. In kind it is functional, cell-based.
The subject of series [13] is MCF7. Kind of series: Antiproliferative activity against human MCF7 cells assessed as reduction in cell growth. In kind it is functional, cell-based.
For series [14], the system named is HCT-116. Kind of series: Antiproliferative activity against human HCT-116 cells assessed as reduction in cell growth. In kind it is functional, cell-based.
The subject of series [15] is SK-OV-3. Kind of series: Antiproliferative activity against human SK-OV-3 cells assessed as reduction in cell growth. In kind it is functional, cell-based.
Series [16] relates to MDA-MB-231. Kind of series: Antiproliferative activity against human MDA-MB-231 cells assessed as reduction in cell growth. In kind it is functional, cell-based.
In series [17] the test system is A2780. Kind of series: Antiproliferative activity against human A2780 cells assessed as reduction in cell growth. In kind it is functional, cell-based.
The subject of series [18] is SK-OV-3. Kind of series: Inhibition of colony formation in human SK-OV-3 cells at 10 uM by crystal violet staining assay. In kind it is functional.
Series [19] deals with A549. The series is described as follows: Antiproliferative activity against human A549 cells assessed as reduction in cell growth measured for 72 hrs by MTT assay. In kind it is functional, cell-based. To be noted: A549, 72 h.
Series [20] deals with A549. The series is described as follows: Induction of apoptosis in human A549 cells at 4 uM incubated for 48 hrs by Annexin V-FITC/PI staining based flow cytometry analysis relative to control. In kind it is functional.
Series [21] has as its system A549. Kind of series: Induction of apoptosis in human A549 cells at 1 uM incubated for 48 hrs by Annexin V-FITC/PI staining based flow cytometry analysis relative to control. In kind it is functional.
In series [22] the test system is A549. The series is described as follows: Induction of apoptosis in human A549 cells at 2 uM incubated for 48 hrs by Annexin V-FITC/PI staining based flow cytometry analysis relative to control. In kind it is functional.
Series [23] has as its system Panel NCI-60 (60 carcinoma cell lines). Kind of series: Cytotoxicity against human Panel NCI-60 (60 carcinoma cell lines). In kind it is functional, cell-based.

SMILES strings stand for the structures. pIC50: −log10 of the molar value.

Consider `O=C(CCN1CCOCC1)Nc1ccc(-c2nc3cc(Cl)ccc3o2)cc1`, for which the results for the negative logarithm of the IC50 (pIC50) in series [1], in [2] and in [3] were 5.21, 7.15 and 5.22, respectively.
As to `NC(=O)c1cccc2cn(-c3ccc(C4CCCN(CCC5CCN(CCC6CCN(c7ccc8c(c7)C(=O)N(C7CCC(=O)NC7=O)C8=O)CC6)CC5)C4)cc3)nc12` (stereo not drawn), the DC50 in series [4] came out at 0.0252 µM. Further, the inhibition in vivo at 40 mg/kg in series [5] was found to be 71.4%. The Activity in [6] is 11.78%; in series [7], 65.84%; in series [9] it was 88%. Besides, the pIC50 in series [8] is 5.98.
In the case of `Cc1cc(C)n(S(=O)(=O)c2ccc3[nH]c(=O)c(=O)[nH]c3c2)n1`, the IC50 at 48 h in series [10] was determined as 81.7 µM. Further, the pIC50 in [11] was 8.36; in [12], 5.59.
Consider `CCNC(=S)N/N=C\c1ccc(-c2nc3c(oc4ccccc43)c(=O)[nH]2)cc1`, for which the pIC50 in series [13] is 4.42; in series [14], 5.06; in series [15], 5.30; in series [16], 4.32; in [17] it was 4.61. Moreover, the inhibition at 10 µM in [18] turned out to be 78.1%.
For the molecule `O=C1CCN(Cc2cn(-c3ccccc3F)nn2)C2(CCCCC2)c2ccccc21`, in series [19], the pIC50 was 5.71. Besides, the Activity in series [20] came out at 19%; in series [21] it was 8%; in series [22], 10.9%.
Take `CC(=O)c1nnn(-c2ccc(Br)cc2)c1C`: the pIC50 in series [23] was 7.75.
